# Assay results from ChEMBL document CHEMBL3232714, “Antiparasitic chaiyaphumines from entomopathogenic Xenorhabdus sp. PB61.4” (J Nat Prod, 2014).
# The source made the active and inactive calls. No cut-off for these calls is given here.
# Columns and labels:
# Trypanosoma cruzi = assay: Antitrypanosomal activity against trypomastigote forms of Trypanosoma cruzi Tulahuen C4; format: functional, organism-based
# Escherichia coli = assay: Antibacterial activity against Escherichia coli DH10B by agar diffusion assay; format: functional; settings: K-12 substr. DH10B
# Saccharomyces cerevisiae = assay: […] activity against Saccharomyces cerevisiae by agar diffusion assay; format: functional, organism-based
# Plasmodium falciparum = assay: Antiplasmodial activity against erythrocytic stages of Plasmodium falciparum NF54; format: functional, organism-based
# [1] = Selectivity index, ratio of IC50 for rat L6 cells to IC50 for erythrocytic stages of Plasmodium falciparum NF54; format: toxicity, cell-based; settings: read-out: Ratio IC50
# L6 = assay: Cytotoxicity against rat L6 cells; format: cell-based
# [2] = system: Trypanosoma brucei rhodesiense; assay: Antitrypanosomal activity against bloodstream forms of Trypanosoma brucei rhodesiense STIB900; format: functional, organism-based
# Bacillus subtilis = assay: Antibacterial activity against Bacillus subtilis by agar diffusion assay; format: functional, organism-based
# Micrococcus luteus = assay: Antibacterial activity against Micrococcus luteus by agar diffusion assay; format: functional, organism-based
SMILES,IC50 (Trypanosoma cruzi),Activity (Escherichia coli),Activity (Saccharomyces cerevisiae),IC50 (Plasmodium falciparum),selectivity ratio [1],IC50 (L6),IC50 [2],Activity (Bacillus subtilis),Activity (Micrococcus luteus)
O=C(Cn1ccnc1[N+](=O)[O-])NCc1ccccc1 [BENZNIDAZOLE],1.73 µM,–,–,–,–,–,–,–,–
C[C@H]1NC(=O)[C@@H](Cc2ccccc2)NC(=O)[C@@H](NC(=O)Cc2ccccc2)[C@@H](C)OC(=O)[C@H](Cc2c[nH]c3ccccc23)NC(=O)[C@@H]2CCCN2C1=O,56.4 µM,inactive,inactive,0.61 µM,> 151,92.2 µM,5.11 µM,inactive,inactive
CCC(=O)N[C@@H]1C(=O)N[C@H](Cc2ccccc2)C(=O)N[C@H](C)C(=O)N2CCC[C@H]2C(=O)N[C@@H](Cc2c[nH]c3ccccc23)C(=O)O[C@@H]1C,98.9 µM,inactive,inactive,15.4 µM,–,> 151 µM,77.6 µM,inactive,inactive
